pIC50: −log10 of the molar value. Like-named read-outs stand apart in the source and are kept apart here.
What was measured:
[1] = tested on: IL-4 stimulated expression of CD23 in human Ramos B cells (JAK-1 and JAK-3); assay: Assay for Ramos B-Cell Line Stimulated with IL-4 (CD23 upregulation, FACS); assay type: cell-based; conditions: read-out: IC50, Example 41
Outline: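 Human Ramos B cells (5×10^4 per point, RPMI 5% serum) pre-incubated 1 h at 37 °C with compound or DMSO, then stimulated with IL-4 at 50 units/mL final for 20-24 h. CD23 upregulation measured by anti-CD23-PE staining and flow cytometry; IC50 derived.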

Primary human T-cells = assay: Primary Human T-Cell Proliferation Assay Stimulated with IL-2 (CellTiter-Glo); assay type: cell-based; conditions: read-out: IC50, Example 42
Outline: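 Peripheral blood T-cells pre-activated with anti-CD3/anti-CD28 and IL-2 were washed free of IL-2, then cultured with compound plus IL-2 for 72 hours at 37° C, duplicate wells. Viability read as ATP by CellTiter-Glo luminescence; IC50 reported.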

[2] = Homo sapiens, Ramos, Ramos B-cell line stimulated with IL-4, CD23 expression by FACS
[3] = Homo sapiens, T-cell, primary human T-cell proliferation stimulated with IL-2
[4] = Ramos B cells stimulated with IL-4, CD23 expression by FACS
[5] = primary human T-cells stimulated with IL-2, proliferation

pIC50 [1, 2]	Structure (SMILES)	pIC50 (Primary human T-cells; [3])	other results
6.45	CN(C)C(=O)COc1ccc(Nc2nc(Nc3cccc(S(N)(=O)=O)c3)ncc2F)cc1Cl [Compound I-132, N2-(3-Aminosulfonylphenyl)-N4-(3-chloro-4-dimethylaminocarbonylmethoxyphenyl)-5-fluoro-2,4-pyrimidinediamine]	6.33	
6.58	Cc1ccc(Nc2nc(Nc3cccc(S(N)(=O)=O)c3)ncc2F)cc1OCCN1CCOCC1 [Compound I-203, N2-(3-Aminosulfonylphenyl)-5-fluoro-N4-[4-methyl-3-(2-morpholinoethyloxy)phenyl]-2,4-pyrimidinediamine]	6.17	
6.95	Cc1cnc(Nc2cccc(S(N)(=O)=O)c2)nc1Nc1ccc(OCC(=O)N(C)C)c(Cl)c1 [Compound I-135, N2-(3-Aminosulfonylphenyl)-N4-(3-chloro-4-dimethylaminocarbonylmethoxyphenyl)-5-methyl-2,4-pyrimidinediamine]	6.98	
8.18	Cc1ccc(Nc2ncc(C)c(Nc3ccc(OCC#N)cc3)n2)cc1S(N)(=O)=O [Compound I-59, N2-(3-Aminosulfonyl-4-methylphenyl)-N4-(4-cyanomethoxyphenyl)-5-methyl-2,4-pyrimidinediamine]	7.60	
7.01	Cc1ccc(Nc2ncc(F)c(Nc3ccc(CCOC(N)=O)cc3)n2)cc1S(N)(=O)=O [III-53, N4-{4-[2-(Aminocarbonyloxy)ethyl]phenyl}-N2-(3-aminosulfonyl-4-methylphenyl)-5-fluoro-2,4-pyrimidinediamine]	6.54	
	Cc1noc(CCc2ccc(Nc3nc(Nc4cccc(S(N)(=O)=O)c4)ncc3F)cc2)n1 [III-106, N2-(3-Aminosulfonylphenyl)-5-fluoro-N4-[4-(3-methyl-1,2,4-oxadiazol-5-yl)ethylenephenyl]-2,4-pyrimidinediamine]		pIC50 [1, 4]: 7.37; pIC50 (Primary human T-cells; [5]): 7.12
7.25	Cc1ccc(Nc2ncc(F)c(Nc3ccc(CCC#N)c(F)c3)n2)cc1S(N)(=O)=O [III-17, N2-(3-Aminosulfonyl-4-methylphenyl)-5-fluoro-N4-[4-(2-cyanoethyl)-3-fluorophenyl]-2,4-pyrimidinediamine]	6.70	
6.59	Cc1ccc(Nc2nc(Nc3ccc(C)c(S(N)(=O)=O)c3)ncc2F)cc1OCCN1CCOCC1 [Compound I-204, N2-(3-Aminosulfonyl-4-methylphenyl)-5-fluoro-N4-[4-methyl-3-(2-morpholinoethyloxy)phenyl]2,4-pyrimidinediamine]	5.78	
	COC(=O)c1ccc(Nc2nc(Nc3ccc(F)c(S(N)(=O)=O)c3)ncc2F)s1 [IX-48, N2-(3-Aminosulfonyl-4-fluorophenyl)-5-fluoro-N4-(5-methoxycarbonyl-thiophene-2-yl)-2,4-pyrimidinediamine]		pIC50 ([1]; Homo sapiens, Ramos, Ramos B cells stimulated with IL-4, CD23 expression by FACS): 6.59; pIC50 (Primary human T-cells; Homo sapiens, T-cell, primary human T-cells stimulated with IL-2, proliferation): 5.58
6.58	Cc1ccc(Nc2ncc(F)c(Nc3ccc(OCC#N)c(CO)c3)n2)cc1S(N)(=O)=O [Compound I-51, N2-(3-Aminosulfonyl-4-methylphenyl)-N4-(4-cyanomethoxy-3-hydroxymethylphenyl)-5-fluoro-2,4-pyrimidinediamine]	5.67	
6.44	COc1cc(Nc2nc(Nc3ccc(S(N)(=O)=O)cc3)ncc2F)cc(OCC#N)c1OC [Compound I-1, N2-(4-Aminosulphonylphenyl)-N4-(3-cyanomethoxy-4,5-dimethoxyphenyl)-5-fluoro-2,4-pyrimidinediamine]	5.00	
6.52	Cc1cnc(Nc2cccc(S(N)(=O)=O)c2)nc1Nc1ccc(OCC(N)=O)cc1 [Compound I-109, N4-(4-Aminocarbonylmethoxyphenyl)-N2-(3-aminosulfonylphenyl)-5-methyl-2,4-pyrimidinediamine]	6.69	
6.93	CNC(=O)COc1ccc(Nc2nc(Nc3cccc(S(N)(=O)=O)c3)ncc2C)cc1F [Compound I-155, N2-(3-Aminosulfonylphenyl)-N4-(3-fluoro-4-methylaminocarbonylmethoxyphenyl)-5-methyl-2,4-pyrimidinediamine]	7.00	
6.88	Cc1ccc(Nc2ncc(C)c(Nc3ccc(OCC(=O)N(C)C)c(Cl)c3)n2)cc1S(N)(=O)=O [Compound I-136, N2-(3-Aminosulfonyl-4-methylphenyl)-N4-(3-chloro-4-dimethylaminocarbonylmethoxyphenyl)-5-methyl-2,4-pyrimidinediamine]	6.71	
6.79	CNC(=O)COc1ccc(Nc2nc(Nc3ccc(S(N)(=O)=O)cc3)ncc2C)cc1Cl [Compound I-149, N2-(4-Aminosulfonylphenyl)-N4-(3-chloro-4-methylaminocarbonylmethoxyphenyl)-5-methyl-2,4-pyrimidinediamine]	6.71	
8.30	Cc1cnc(Nc2cccc(S(N)(=O)=O)c2)nc1Nc1ccc(OCC#N)cc1 [Compound I-58, N2-(3-Aminosulfonylphenyl)-N4-(4-cyanomethoxyphenyl)-5-methyl-2,4-pyrimidinediamine]	7.72	
6.45	Cc1ccc(Nc2ncc(C)c(Nc3ccc(OCC(N)=O)cc3)n2)cc1S(N)(=O)=O [Compound I-110, N4-(4-Aminocarbonylmethoxyphenyl)-N2-(3-aminosulfonyl-4-methylphenyl)-5-methyl-2,4-pyrimidinediamine]	6.60	
7.14	Cc1cc(Nc2nc(Nc3ccc(C)c(S(N)(=O)=O)c3)ncc2F)ccc1CCC#N [III-19, N2-(3-Aminosulfonyl-4-methylphenyl)-N4-[4-(2-cyanoethyl)-3-methylphenyl]-5-fluoro-2,4-pyrimidinediamine]	6.76	
	CNS(=O)(=O)c1cc(Nc2ncc(F)c(Nc3ccc(-c4cnco4)cc3)n2)ccc1C [IV-7, 5-Fluoro-N2-[3-(N-methylaminosulfony)-4-methylphenyl]-N4-[4-(1,3-oxazol-5-yl)phenyl]-2,4-pyrimidinediamine]		pIC50 [1, 4]: 6.95; pIC50 (Primary human T-cells; [5]): 6.69

From patent US11827628B2, “Compositions and methods for inhibition of the JAK pathway” (Rigel Pharmaceuticals, Inc., priority 2005, dated 2023)
